Measurements published in patent US12564641B2 (EISAI R&D MANAGEMENT CO., LTD., priority 2019, dated 2026).
Entries after “also recorded” stand apart in the source; their conditions may differ. Read-outs that look alike come from different tables or passages of the source.

Key:
[1] = SEC-HPLC aggregation analysis; assay type: physicochemical; details: Table 21, humanized 345A12
Experimental: SEC-HPLC analysis was conducted using Agilent 1200 HPLC system.
Aggregation of LCcys80 ADCs was analyzed by size-exclusion, high-performance liquid chromatography (SEC-HPLC) using an Agilent 1200 HPLC. Antibodies and ADCs were prepared at 2 mg/mL in 1×DPBS, 8 μL (16 μg) of each sample was injected and run for 36 min. All data were analyzed using Agilent ChemStation software. Percent aggregation, percent monomer, and percent fragmentation were reported.

[2] = Capillary isoelectric focusing (cIEF) analysis; assay type: physicochemical
Experimental: Auto-sampler reagents were filled according to the CFR installation and start-up procedures. Hemoglobin was used as system stability standard. Default settings for batch data analysis was used. Focus period #1 was performed for 1 min at 1,500 V for both the system suitability standards and samples. Focus period #2 was performed for 5 min at 3,000 V for the system suitability standards and 11 min at 3,000 V for the TIGC samples and matched buffer controls. Duplicate TIGC samples used Focus period #2 at 4.5 min and all samples were bracketed with a system suitability standard. Samples were automatically integrated using a peak width parameter of 0.1 and threshold of 5 and integrated between pI 7.5-9.4.

[3] = Concentration of purified humanized 345A12 antibodies to 5 mg/mL; assay type: physicochemical; details: purified antibody in 1×DPBS
Experimental: The super-humanized 345A12 antibodies were purified from 350 mL of scale-up cell culture and formulated in 1×DPBS. The antibodies were concentrated for physical-chemical property evaluation.

[4] = test system: cynomolgus monkey mesothelin; assay: BIAcore binding affinity, cynomolgus monkey mesothelin (Example 10)
Experimental: (§1) Binding affinity: Binding measurements were performed in HBS-P+ buffer on a BIAcore T-100 instrument. Antibodies were diluted to 1 μg/mL in HBS-P+. Samples were centrifuged at 14,000×g for 5 min at room temperature and then supernatants were transferred to a new 1.5 mL BIAcore tube and capped. Mesothelin (50 μg) was diluted to 100 nM in 1×HBS-P+ buffer, then serial diluted 5-fold at 100, 20, 4, 0.8, and 0.16 nM in BIAcore tubes and capped. Anti-human antibody capture chip was prepared according to the manufacturer's protocol using a CM5 chip with immobilization wizard. Final capture antibody levels were 8000-9000RU, in HBS-P+. Chip was prepared for assay with five cycles of 300 sec buffer injection followed by 30 sec regeneration, all at 30 μL/min across all four flow cells.
(§2) Antibodies were captured on flow cells 2-4 by sequential injections of individual ligand solutions for 90 sec at 10 μL/min. Analyte injection was done in a single-cycle kinetics manner by sequential injections of analyte solutions from low to high concentration for 240 sec each at 30 μL/min. Detection was 2-1, 3-1, 4-1. Double-referencing was performed by a sequence of identical ligand capture injections, followed by 5 buffer-only injections for 240 sec each, dissociation for 1800 sec, and regeneration as above. All ligands were analyzed for binding to mesothelin in duplicate. […]

rat mesothelin = molecular target: T1, rat mesothelin (Rattus norvegicus, UniProt Q9ERA7); assay: BIAcore binding affinity, rat mesothelin (Example 10)
T1 sequence (Q9ERA7 36-600): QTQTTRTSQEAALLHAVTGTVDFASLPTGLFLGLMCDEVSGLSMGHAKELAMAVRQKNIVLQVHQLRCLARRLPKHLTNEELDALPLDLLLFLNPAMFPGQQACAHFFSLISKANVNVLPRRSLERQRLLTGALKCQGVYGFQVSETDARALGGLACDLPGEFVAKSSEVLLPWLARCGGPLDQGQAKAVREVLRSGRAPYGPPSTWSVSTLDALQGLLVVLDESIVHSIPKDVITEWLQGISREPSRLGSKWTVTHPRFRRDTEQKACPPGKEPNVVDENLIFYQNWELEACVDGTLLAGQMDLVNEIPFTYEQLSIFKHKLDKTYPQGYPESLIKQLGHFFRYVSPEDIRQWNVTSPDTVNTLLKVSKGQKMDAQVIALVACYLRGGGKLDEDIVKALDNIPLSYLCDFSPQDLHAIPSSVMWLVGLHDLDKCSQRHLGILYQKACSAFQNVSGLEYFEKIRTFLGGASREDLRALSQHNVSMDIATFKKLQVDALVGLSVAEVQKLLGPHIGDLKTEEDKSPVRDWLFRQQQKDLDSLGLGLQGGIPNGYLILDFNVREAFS
Experimental: as §1, §2

MSLN-negative cell lines = assay: In vitro cytotoxicity (IC50, Crystal Violet) on MSLN-negative cell lines (Example 11); assay type: cell-based; details: for IC50: read-out: In vitro cell based potency, IC50
Experimental: Plates were incubated at 37° C. 5% CO2 for an additional 5 days. […] Plates were read at 570 nm.

MSLN-positive cell lines = assay: In vitro cytotoxicity (IC50, Crystal Violet) on MSLN-positive cell lines (Example 11); details: for IC50: read-out: In vitro cell based potency, IC50
Experimental: Cytotoxicity: Cells were sub-cultured and seeded at 5,000 cells/well in complete growth medium in 96-well tissue culture plates, and incubated at 37° C., 5% CO2 overnight (16 hours). Test reagents were serially diluted 1:3 in 2 mL deep-well dilution plates, starting at 200 nM (10 dilutions total). Diluted samples (100 μL) were added to the cell plates (starting concentration of test samples at 100 nM). Plates were incubated at 37° C. 5% CO2 for an additional 5 days. Medium was then discarded, and plates were washed once with 200 μL DPBS, stained with 50 μL of 0.2% Crystal Violet solution at room temperature for 15 min, and then washed extensively with tap water. Plates were air-dried, and Crystal Violet was dissolved with 200 μL of 1% SDS solution. Plates were read at 570 nm. Data was analyzed for IC50 determination using GraphPad Prism 6.

[5] = test system: MSLN-expressing CHO cells; assay: ADCC activity, luciferase assay with Jurkat-Effector cells; assay type: cell-based
Experimental: MSLN-expressing CHO cells were thawed and seeded 1.000 cells/well (25 μL) in 96-well tissue culture plates in complete RPMI-4% Ultralow IgG FBS. […] 6,000 Jurkat-Effector cells (Promega) were thawed and added (25 μL) to the cell plate, and the plate was incubated at 37° C. 5% CO2 for 18-22 hours.
Luciferase assay reagent was thawed in the dark. 75 μL of luciferase assay reagent was added to each well, plates were shaken for 30 sec on a plate shaker. Plates were read on a luminometer after 5 min incubation.

[6] = test system: human gastric cancer NCI-N87 xenograft; assay: Human gastric cancer NCI-N87 xenograft model (Example 15); assay type: in vivo, mouse; details: 5 mg/kg
Experimental: (§3) 100 μL/mouse of the mixture was injected subcutaneously.

[7] = test system: human mesothelioma HAY xenograft; assay: Human mesothelioma HAY xenograft model (Example 16); assay type: in vivo, mouse; details: 5 mg/kg
Experimental: as §3

[8] = test system: human mesothelioma PDX Meso7212; assay: Human mesothelioma PDX model Meso7212 (Example 17); assay type: in vivo, mouse; details: 10 mg/kg single dose i.v.
Experimental: Xenotransplantation: On day 0. Meso 7212 tumors were removed from the five donor mice under sterile conditions.
Experimental procedure: After the xenotransplantation, the engraftment and the propagation of the tumor in the mice were controlled at least twice weekly by palpation. When the tumor was palpable, the measurements of tumor diameters were performed with a digital caliper (Mitutoyo).
From the first treatment day onwards, tumor volumes and body weights were recorded twice weekly. The animal welfare was controlled twice daily.
Treatment: All agents were administered intravenously as a single dose on the day of randomization. Animals in the control group were treated with DPBS in the same manner.

human NSCLC PDX LXFA-586 = assay: Human NSCLC PDX model LXFA-586; details: 25 mg/kg single dose i.v.
Text: (§4) Animals: Female NMRI nu/nu mice, 4 to 6 weeks of age.
Xenotransplantation: LXFA-586 established growing tumor (T2N1M0) from a primary non-small cell lung adenocarcinoma human patient.
(§5) Experimental procedure: Animals were monitored until the tumor implants reached the study volume criteria of 50-250 mm^3 (e.g., 80-200 mmi) in a sufficient number of animals. […] The process of the assignment to groups (enrollment, stratified randomization) may also be referred to as randomization. The day of randomization was designated as day 0 of the experiment.
(§6) Tumors were measured and mice were weighed twice a week during the experimental period. The first day of dosing was day 1, one day after randomization (day 0).

human NSCLC PDX LXFL-529 = assay: Human NSCLC PDX model LXFL-529; details: 12.5 mg/kg i.v.
Text: as §4
Xenotransplantation: LXFL-529 established growing tumor (T3N1M0) from a primary non-small cell lung adenocarcinoma human patient.
as §5, with “mm^3)” for “mmi)”
as §6

mesothelin = mesothelin (Homo sapiens, UniProt Q13421); assay: Surface plasmon resonance (BIAcore) binding analysis of anti-mesothelin antibodies; details: Table 15; rabbit-human chimeric antibodies, individual curves
Sequence of mesothelin (Q13421 with tags, fused parts or gaps): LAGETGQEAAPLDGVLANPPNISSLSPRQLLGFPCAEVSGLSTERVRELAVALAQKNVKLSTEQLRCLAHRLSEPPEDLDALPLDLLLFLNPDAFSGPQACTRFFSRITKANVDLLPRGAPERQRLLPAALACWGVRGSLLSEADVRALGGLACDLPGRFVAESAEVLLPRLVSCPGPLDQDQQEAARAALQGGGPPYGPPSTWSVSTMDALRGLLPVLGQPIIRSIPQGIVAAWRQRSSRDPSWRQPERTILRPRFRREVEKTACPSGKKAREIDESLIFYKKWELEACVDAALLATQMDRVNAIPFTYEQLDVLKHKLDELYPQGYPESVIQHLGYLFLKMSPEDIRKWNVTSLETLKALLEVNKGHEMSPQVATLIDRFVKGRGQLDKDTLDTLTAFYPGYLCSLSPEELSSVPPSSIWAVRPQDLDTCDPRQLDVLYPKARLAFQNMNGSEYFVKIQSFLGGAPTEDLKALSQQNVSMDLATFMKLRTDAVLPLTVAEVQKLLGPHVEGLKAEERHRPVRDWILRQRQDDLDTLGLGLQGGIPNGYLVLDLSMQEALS
Experimental: Anti-mesothelin antibody binding affinity to mesothelin was measured by BIAcore (BIAcore T-100, GE healthcare, #1426075), using a series S CM5 chip. Antibody concentrations were adjusted to 1 μg/mL and mesothelin (50 μg) to 100 nM in 1×HBS-P+ buffer (GE Healthcare). Anti-human antibody capture chip was prepared according to the manufacturer's protocol using a CM5 chip with immobilization wizard. Final capture antibody levels were 8000-9000 RU, in HBS-P+. Chip was prepared for assay with five cycles of 300 sec buffer injection followed by 30 sec regeneration, all at 30 μL/min across all four flow cells. Antibodies were captured on flow cells 2-4 by sequential injections of individual ligand solutions for 90 sec at 10 μL/min. Analyte injection was done in a single-cycle kinetics manner by sequential injections of analyte solutions from low to high concentration for 240 sec each at 30 μL/min. Detection was 2-1, 3-1, 4-1. Double-referencing was performed by a sequence of identical ligand capture injections, followed by 5 buffer-only injections for 240 sec each, dissociation for 1800 sec, and regeneration as above. All ligands were analyzed for binding to mesothelin in duplicate. Kinetic analysis was performed using BIAEvaluations software using a 1:1 Langmuir fitting model. On-rate, off-rate, and affinity constants were averaged from duplicate runs.

[9] = NCI-H292 cells (MSLN MFI 108.6)
[10] = NCI-H1568/MSLN cells (MSLN MFI 4474.00)
[11] = OVCAR3-A1 cells (MSLN MFI 220.0)
[12] = Table 34: BAY 94-9343 and anetumab, MSLN-expressing CHO cells, Jurkat-Effector cells

Molecule	binding to cynomolgus monkey mesothelin [4]	binding to rat mesothelin (rat mesothelin)	% Max Killing (MSLN-negative cell lines; A431 cells (MSLN MFI 5.6)) [%]	IC50 (MSLN-negative cell lines; A431 cells (MSLN MFI 5.6)) [nM]	% Max Killing (MSLN-negative cell lines; BxPC3 cells (MSLN MFI 15.59)) [%]	IC50 (MSLN-negative cell lines; BxPC3 cells (MSLN MFI 15.59)) [nM]	% Max Killing (MSLN-negative cell lines; SKOV3 cells (MSLN MFI 20)) [%]	IC50 (MSLN-negative cell lines; SKOV3 cells (MSLN MFI 20)) [nM]	% Max Killing (MSLN-positive cell lines; [9]) [%]	% Max Killing (MSLN-positive cell lines; [10]) [%]	% Max Killing (MSLN-positive cell lines; [11]) [%]	IC50 (MSLN-positive cell lines; [9]) [nM]	IC50 (MSLN-positive cell lines; [10]) [nM]	IC50 (MSLN-positive cell lines; [11]) [nM]	ADCC activity [5, 12] [%]	also measured
345A12-HC15-LC4: anti-mesothelin antibody, heavy chain SEQ ID NO: 17, light chain SEQ ID NO: 18; antibody in MORAb-109	retained binding affinity	Nether antibody bound														Aggregation % Monomer [1]: 86.56%; % Acidic Peaks [2]: 34.787%; % Basic Peaks [2]: 14.424%; % Neutral Peak [2]: 50.790%; pI [2]: 8.25; Concentration to 5 mg/mL [3]: Yes
COc1cc2cc(c1Cl)N(C)C(=O)C[C@H](OC(=O)[C@H](C)N(C)C(=O)CCC(C)(C)S)[C@]1(C)O[C@H]1[C@H](C)[C@@H]1C[C@@](O)(NC(=O)O1)[C@H](OC)/C=C/C=C(\C)C2 [DM4]			92.52	0.71	97.98	0.57	81.89	0.28	92.40	77.49	100.00	0.24	0.57	0.1		
BAY 94-9343: ADC comprising anetumab conjugated to the maytansinoid tubulin inhibitor DM4 via a reducible SPDB linker			96.82	5.31	97.33	2.53	74.99	0.81	64.15	75.10	100.00	3.07	0.15	0.41	65.06	cytotoxicity on MSLN-negative cell lines (MSLN-negative cell lines): killing on both MSLN-positive and MSLN-negative cell lines; also recorded: relatively high levels of cytotoxicity; ADCC activity [5]: weaker ADCC activity than anetumab; body weight change [6]: No body weight loss; body weight change [7]: No body weight loss; anti-tumor effect [8]: tumor regression; body weight change [8]: No body weight loss; Tq (tumor volume quadrupling time) (human NSCLC PDX LXFA-586): not reached; anti-tumor efficacy (human NSCLC PDX LXFA-586): robust anti-tumor efficacy similar to MORAb-109; anti-tumor efficacy (human NSCLC PDX LXFL-529): no anti-tumor efficacy; cytotoxicity on MSLN-positive cell lines (MSLN-positive cell lines): killing on both MSLN-positive and MSLN-negative cell lines
MORAb-009: known anti-mesothelin antibody, MORAb-009 (Amatuximab)																Kd (mesothelin): 0.15 nM; ka (mesothelin): 1.95e+06 M⁻¹ s⁻¹; kd (mesothelin): 0.000292 s⁻¹
anetumab: a human anti-mesothelin antibody	did not bind	Nether antibody bound	18.58	> 300	25.73	> 300	31.55	> 300	15.15	5.50	19.80	> 300	> 100	> 100	100	
